Data from PubChem BioAssay AID248 (DTP/NCI, 2004).
Values joined by “and” are separate entries in the source; they are usually repeats but may differ in a detail not shown here. Equal values may be shown once. Toxic doses and inconclusive results are not listed. Rule as the data show it: active = T/C of 150% or more; inactive = T/C below 125%.

System: L1210 leukemia ip in BDF1 mice, survival T/C
Assay: NCI In Vivo Anticancer Drug Screen. Data for tumor model L1210 Leukemia (intraperitoneal) in B6D2F1 (BDF1) mice
Settings: endpoint: mean survival time, higher = longer survival
Outline: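 Ratio derived from survival: compound-dosed mice over vehicle-dosed mice, all bearing a transplantable tumor.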

[1] = dose: 100.0 mg/kg/injection, schedule: Q04DX003 (ip), vehicle: Klucel (hydroxypropylcellulose) (HPC)
[2] = dose: 200.0 mg/kg/injection, schedule: Q04DX003 (ip), vehicle: Klucel (hydroxypropylcellulose) (HPC)
[3] = dose: 400.0 mg/kg/injection, schedule: Q04DX003 (ip), vehicle: Klucel (hydroxypropylcellulose) (HPC)
[4] = dose: 100.0 mg/kg/injection, schedule: Q04DX002 (ip), vehicle: Klucel (hydroxypropylcellulose) (HPC)
[5] = dose: 200.0 mg/kg/injection, schedule: Q04DX002 (ip), vehicle: Klucel (hydroxypropylcellulose) (HPC)
[6] = dose: 400.0 mg/kg/injection, schedule: Q04DX002 (ip), vehicle: Klucel (hydroxypropylcellulose) (HPC)
[7] = dose: 50.0 mg/kg/injection, schedule: Q04DX003 (ip), vehicle: saline
[8] = dose: 100.0 mg/kg/injection, schedule: Q01DX001 (ip), vehicle: saline
[9] = dose: 200.0 mg/kg/injection, schedule: Q01DX001 (ip), vehicle: saline
[10] = dose: 400.0 mg/kg/injection, schedule: Q01DX001 (ip), vehicle: saline

Measured: T/C

CC(C)N1C(=O)OC2(CCN(CCCSc3ccc(F)cc3)CC2)C1=O
inactive: [1] 103 % of control | [2] 103 % of control | [3] 103 % of control

COC1(OC)C2(Cl)C=CC1(Cl)C1CC12 (configuration not stated)
inactive: [4] 97 % of control | [5] 107 % of control | [6] 100 % of control

Nc1nnc(Sc2n[nH]c(=O)[nH]c2=O)s1
inactive: dose: 100.0 mg/kg/injection, schedule: Q01DX001 (ip), vehicle: carboxymethylcellulose (CMC) 98 % of control | dose: 200.0 mg/kg/injection, schedule: Q01DX001 (ip), vehicle: carboxymethylcellulose (CMC) 102 % of control | dose: 400.0 mg/kg/injection, schedule: Q01DX001 (ip), vehicle: carboxymethylcellulose (CMC) 105 % of control

COC(=O)c1cccc(Cl)c1-c1c(Cl)cccc1C(=O)OC
inactive: [4] 96 % of control | [5] 108 % of control | [6] 92 % of control

COC1(c2ccccc2)OC12CC1CCC2C1 (configuration not stated)
inactive: [7] 98 % of control | [8] 95 % of control | dose: 100.0 mg/kg/injection, schedule: Q04DX003 (ip), vehicle: saline 100 % of control | [9] 101 % of control | dose: 200.0 mg/kg/injection, schedule: Q04DX003 (ip), vehicle: saline 100 % of control | [10] 95 % of control

CCC1CC(C)C(=O)NC1=O (configuration not stated)
inactive: dose: 12.5 mg/kg/injection, schedule: Q01DX009 (ip), vehicle: saline 95 % of control | dose: 12.5 mg/kg/injection, schedule: Q04DX003 (ip), vehicle: saline 91 % of control | dose: 25.0 mg/kg/injection, schedule: Q01DX009 (ip), vehicle: saline 100 % of control | dose: 25.0 mg/kg/injection, schedule: Q04DX003 (ip), vehicle: saline 110 % of control | dose: 50.0 mg/kg/injection, schedule: Q01DX009 (ip), vehicle: saline 95 % of control | [7] 96 % of control

CCCC1(CCC)OOC(CCC)(CCC)OO1
inactive: dose: 50.0 mg/kg/injection, schedule: Q01DX009 (ip), vehicle: saline with Tween-80 96 % of control | dose: 100.0 mg/kg/injection, schedule: Q01DX009 (ip), vehicle: saline with Tween-80 96 % of control | dose: 200.0 mg/kg/injection, schedule: Q01DX009 (ip), vehicle: saline with Tween-80 110 % of control

Cc1ccc2ccccc2c1
inactive: [4] 91 % of control | [5] 95 % of control

O=S(C/C=C/CS(=O)c1ccccc1)c1ccccc1 (configuration not stated)
inactive: [4] 105 % of control | [5] 116 % of control | [6] 103 % of control

NC(=O)N1CCCCC1
inactive: [8] 102 % of control | [9] 98 % of control | [10] 102 % of control

CCC(CC)(C(=O)O)C(=O)O
inactive: dose: 25.0 mg/kg/injection, schedule: Q04DX003 (ip), vehicle: Klucel (hydroxypropylcellulose) (HPC) 93 % of control | dose: 50.0 mg/kg/injection, schedule: Q04DX003 (ip), vehicle: Klucel (hydroxypropylcellulose) (HPC) 90 % of control | [1] 96 % of control and 88 % of control

Cn1ccnc1CC(C)(O)c1ccccc1 (configuration not stated)
inactive: dose: 100.0 mg/kg/injection, schedule: Q01DX001 (ip), vehicle: Klucel (hydroxypropylcellulose) (HPC) 92 % of control | dose: 100.0 mg/kg/injection, schedule: Q01DX009 (ip), vehicle: Klucel (hydroxypropylcellulose) (HPC) 97 % of control and 98 % of control | [4] 96 % of control | dose: 200.0 mg/kg/injection, schedule: Q01DX001 (ip), vehicle: Klucel (hydroxypropylcellulose) (HPC) 97 % of control | dose: 200.0 mg/kg/injection, schedule: Q01DX009 (ip), vehicle: Klucel (hydroxypropylcellulose) (HPC) 108 % of control and 88 % of control | [5] 108 % of control | dose: 400.0 mg/kg/injection, schedule: Q01DX009 (ip), vehicle: Klucel (hydroxypropylcellulose) (HPC) 102 % of control | [6] 103 % of control

CC(CC(O)c1ccccc1)c1ccccc1 (configuration not stated)
inactive: dose: 100.0 mg/kg/injection, schedule: Q01DX009 (ip), vehicle: saline 102 % of control | [1] 98 % of control | dose: 200.0 mg/kg/injection, schedule: Q01DX009 (ip), vehicle: saline 97 % of control | [2] 104 % of control | dose: 400.0 mg/kg/injection, schedule: Q01DX009 (ip), vehicle: saline 98 % of control | [3] 104 % of control
